Biological target: T1, human type glucagon receptor (Homo sapiens, UniProt P47871)
T1 construct: an about 1.4 kb DNA fragment containing glucagon receptor gene was recovered from the gel; expressed in transfected cells; host or cells: FreeStyle CHO cells (transient expression); membrane fraction prepared by homogenisation and ultracentrifugation
Test: Measurement of glucagon binding inhibitory activity ([125I]-glucagon, receptor membrane protein)
Settings: test compound 10 μM; 0.4% DMSO alone = 0%, unlabeled glucagon 1 μM = 100%; read-out: inhibitory rate (%) at 10 μM
Method: The glucagon binding inhibitory action of the compound of the present invention was evaluated by the following method.
(1) Cloning of Human Glucagon Receptor Gene
Human glucagon receptor gene was cloned by PCR reaction using human pancreas Marathon-ready cDNA (Clontech Laboratories, Inc.) as a template and the following primer set.
The PCR reaction was performed using Advantage 2 polymerase (Clontech Laboratories, Inc.) and according to the attached protocol. The obtained PCR product was subjected to agarose gel (1%) electrophoresis, an about 1.4 kb DNA fragment containing glucagon receptor gene was recovered from the gel, and digested with restriction enzymes EcoRI and NotI. The restriction enzyme-treated DNA was subjected to agarose gel (1%) electrophoresis, an about 1.4 kb DNA fragment was recovered and ligated with plasmid pMSRaneo digested with restriction enzymes EcoRI and NotI to give human type glucagon receptor expression plasmid DNA “pMSRaneo/hGCGR”. The base sequence of the inserted fragment was confirmed to be identical with the object sequence.
(2) Preparation of Glucagon Receptor Membrane Protein
Human type glucagon receptor was expressed using FreeStyle CHO Expression System (Invitrogen™). According to the manual attached to the FreeStyle CHO Expression System, and using the human type glucagon receptor expression plasmid DNA “pMSRaneo/hGCGR” produced in the above-mentioned (1), transient expression was performed by FreeStyle CHO cells. The above-mentioned DNA was transfected, and shaking culture was performed at 37° C., 8% CO2, 125 rpm for 2 days. The culture medium was centrifuged at 2,000 rpm for 10 min and the cells were recovered. The recovered cells were washed with PBS, suspended in homogenate buffer [10 mM NaHCO3 (pH 7.4), 1 mM EDTA, complete EDTA-free (Roche, Ltd., 1 tablet/50 ml)], and the cells were disrupted by a Polytron cell disruption apparatus (Kinematica AG). The disruption solution was centrifuged at 2,000 rpm for 10 min, and the supernatant was recovered. The supernatant was centrifuged at 35,000 rpm for 60 min, and the precipitate was suspended in a buffer [20 mM Tris-HCl (pH 7.4), 5 mM EDTA, complete EDTA-free (Roche, Ltd., 1 tablet/50 ml)] to give a glucagon receptor membrane protein.
(3) Measurement of Glucagon Binding Inhibitory Activity
The reaction was started by adding 50 μl of a glucagon receptor membrane protein solution diluted with a reaction buffer [50 mM HEPES (pH 7.4), 5 mM EGTA, 5 mM magnesium chloride, 0.1% BSA, 0.005% Tween20] to 100 μg/ml, 25 μl of a test compound solution containing 0.4% DMSO, which solution was prepared with the reaction buffer to a compound concentration of 40 μM, and 25 μl of radiolabeled glucagon ([^125I]-Receptor Grade Glucagon; Perkin Elmer Inc.) diluted with the reaction buffer to 200 pM to each well of a 96 well plate (Corning Incorporated). The plate was stood at room temperature for 90 min, then the reaction solution was transferred from the reaction plate onto a 96 well unifilter GF/C plate (Perkin Elmer Inc.) by a cell harvester (Perkin Elmer Inc.), and suctioned to collect a membrane fraction on the filter. The filter was immersed in a 0.3% polyethyleneimine solution in advance to prevent non-specific adsorption of the labeled ligand. The filter was washed 4 times with the reaction buffer, and dried at 42° C. for 2 hr. To each well was added 25 μl of scintillator (MicroScint0; Perkin Elmer Inc.), and the amount of fluorescence was measured by a microplate scintillation counter (TopCount NXT™; Perkin Elmer Inc.).
The inhibitory rate (%) of the well added with the test compound (10 μM; containing 0.4% DMSO solution) was calculated wherein the reaction rate of the well added with 0.4% DMSO alone was 0% inhibitory rate and that of the well added with unlabeled glucagon (final concentration 1 μM) was 100% inhibitory rate.

T1 sequence (P47871 26-477): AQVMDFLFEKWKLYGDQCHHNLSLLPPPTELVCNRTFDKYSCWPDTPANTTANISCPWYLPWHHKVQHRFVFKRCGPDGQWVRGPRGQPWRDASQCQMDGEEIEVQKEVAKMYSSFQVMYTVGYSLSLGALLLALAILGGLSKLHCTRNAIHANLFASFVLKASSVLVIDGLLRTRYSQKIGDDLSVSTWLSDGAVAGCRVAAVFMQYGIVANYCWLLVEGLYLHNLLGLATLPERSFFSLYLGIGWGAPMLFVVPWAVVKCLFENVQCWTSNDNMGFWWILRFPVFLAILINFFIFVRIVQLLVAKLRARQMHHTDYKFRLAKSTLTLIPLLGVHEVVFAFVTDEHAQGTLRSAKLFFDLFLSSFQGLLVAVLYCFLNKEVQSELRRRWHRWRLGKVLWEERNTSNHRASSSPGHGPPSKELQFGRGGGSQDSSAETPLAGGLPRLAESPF

SMILES | inhibition at 10 µM [%]
Cc1cc(-c2ncc(C(C)(C)C)o2)ccc1C(CCC(F)(F)F)Nc1ccc(C(=O)N2CCC[C@@H](C(=O)O)C2)cc1 (stereo partly drawn) [Example 23, (3R)-1-(4-((1-(4-(5-tert-butyl-1,3-oxazol-2-yl)-2-methylphenyl)-4,4,4-trifluorobutyl)amino)benzoyl)piperidine-3-carboxylic acid] | 90
Cc1cc(-n2cc3c(n2)CCCC3)ccc1C(Nc1ccc(C(=O)N2CCC[C@@H](C(=O)O)C2)cc1)C(C)C (mixture of isomers) [Example 116, (3R)-1-(4-((2-methyl-1-(2-methyl-4-(4,5,6,7-tetrahydro-2H-indazol-2-yl)phenyl)propyl)amino)benzoyl)piperidine-3-carboxylic acid] | 90
O=C(O)[C@@H]1CCCN(C(=O)c2ccc(NC(c3ccc(-c4ccc(Cl)cc4)cc3)C3CCCCC3)cc2)C1 (stereo partly drawn) [Example 24, (3R)-1-(4-(((4′-chlorobiphenyl-4-yl)(cyclohexyl)methyl)amino)benzoyl)piperidine-3-carboxylic acid] | 84
CCc1cnc(-c2ccc(C(CCC(F)(F)F)Nc3ccc(C(=O)N4CCC[C@@H](C(=O)O)C4)cc3)c(C)c2)nc1 (mixture of isomers) [Example 13, (3R)-1-(4-((1-(4-(5-ethylpyrimidin-2-yl)-2-methylphenyl)-4,4,4-trifluorobutyl)amino)benzoyl)piperidine-3-carboxylic acid] | 84
COc1ccc(-c2ccc(C(CCC(F)(F)F)Nc3ccc(C(=O)N4CCC[C@@H](C(=O)O)C4)cc3)c(C)c2)cc1 (stereo partly drawn) [Example 7, (3R)-1-(4-((4,4,4-trifluoro-1-(4′-methoxy-3-methylbiphenyl-4-yl)butyl)amino)benzoyl)piperidine-3-carboxylic acid] | 91
Cc1cc(-c2ccc(C(F)(F)F)cn2)ccc1C(CCC(F)(F)F)Nc1ccc(C(=O)N2CCC[C@@H](C(=O)O)C2)cc1 (mixture of isomers) [Example 10, (3R)-1-(4-((4,4,4-trifluoro-1-(2-methyl-4-(5-(trifluoromethyl)pyridin-2-yl)phenyl)butyl)amino)benzoyl)piperidine-3-carboxylic acid] | 88
Cc1cc(C(CCC(F)(F)F)Nc2ccc(C(=O)N3CCC[C@@H](C(=O)O)C3)cc2)cc(C)c1-c1ccc(Cl)cc1 (stereo partly drawn) [Example 18, (3R)-1-(4-((1-(4′-chloro-2,6-dimethylbiphenyl-4-yl)-4,4,4-trifluorobutyl)amino)benzoyl)piperidine-3-carboxylic acid] | 86
Cc1cc(-c2ncc(C(F)(F)F)cn2)ccc1C(CCC(F)(F)F)Nc1ccc(C(=O)N2CCC[C@@H](C(=O)O)C2)cc1 (mixture of isomers) [Example 11, (3R)-1-(4-((4,4,4-trifluoro-1-(2-methyl-4-(5-(trifluoromethyl)pyrimidin-2-yl)phenyl)butyl)amino)benzoyl)piperidine-3-carboxylic acid] | 93
Cc1cc(-c2ccc(Cl)cc2)ccc1C(Nc1ccc(C(=O)N2CCC[C@@H](C(=O)O)C2)cn1)C1CCCCC1 (stereo partly drawn) [Example 17, (3R)-1-((6-(((4′-chloro-3-methylbiphenyl-4-yl)(cyclohexyl)methyl)amino)pyridin-3-yl)carbonyl)piperidine-3-carboxylic acid] | 92
Cc1cc(-n2ccc(C(C)C)n2)ccc1C(CCC(F)(F)F)Nc1ccc(C(=O)N2CCC[C@@H](C(=O)O)C2)cc1 (mixture of isomers) [Example 19, (3R)-1-(4-((4,4,4-trifluoro-1-(4-(3-isopropyl-1H-pyrazol-1-yl)-2-methylphenyl)butyl)amino)benzoyl)piperidine-3-carboxylic acid] | 87
CCc1cnc(-c2ccc(C(Nc3ccc(C(=O)N4CCC[C@@H](C(=O)O)C4)cc3)C(C)C)c(C)c2)nc1 (stereo partly drawn) [Example 112, (3R)-1-(4-((1-(4-(5-ethylpyrimidin-2-yl)-2-methylphenyl)-2-methylpropyl)amino)benzoyl)piperidine-3-carboxylic acid] | 90
Cc1cc(-c2ccc(F)cc2)ccc1C(CCC(F)(F)F)Nc1ccc(C(=O)N2CCC[C@@H](C(=O)O)C2)cn1 (stereo partly drawn) [Example 6, (3R)-1-((6-((4,4,4-trifluoro-1-(4′-fluoro-3-methylbiphenyl-4-yl)butyl)amino)pyridin-3-yl)carbonyl)piperidine-3-carboxylic acid] | 85
Cc1cc(-c2ccc(Cl)cc2)ccc1C(Nc1ccc(C(=O)N2CCC[C@@H](C(=O)O)C2)cc1)C1CCCCC1 (stereo partly drawn) [Example 16, (3R)-1-(4-(((4′-chloro-3-methylbiphenyl-4-yl)(cyclohexyl)methyl)amino)benzoyl)piperidine-3-carboxylic acid] | 93
Cc1cc(-c2ccc(C(F)(F)F)nc2)ccc1C(CCC(F)(F)F)Nc1ccc(C(=O)N2CCC[C@@H](C(=O)O)C2)cc1 (mixture of isomers) [Example 9, (3R)-1-(4-((4,4,4-trifluoro-1-(2-methyl-4-(6-(trifluoromethyl)pyridin-3-yl)phenyl)butyl)amino)benzoyl)piperidine-3-carboxylic acid] | 90
Cc1cc(-c2ccc(C(F)(F)F)cn2)ccc1C(Nc1ccc(C(=O)N2CCC[C@@H](C(=O)O)C2)cc1)C(C)C (stereo partly drawn) [Example 26, (3R)-1-(4-((2-methyl-1-(2-methyl-4-(5-(trifluoromethyl)pyridin-2-yl)phenyl)propyl)amino)benzoyl)piperidine-3-carboxylic acid] | 88
O=C(O)[C@@H]1CCCN(C(=O)c2ccc(NC(CCC(F)(F)F)c3ccc(-c4ccc(Cl)cc4)cc3)nc2)C1 (stereo partly drawn) [Example 28, (3R)-1-((6-((1-(4′-chlorobiphenyl-4-yl)-4,4,4-trifluorobutyl)amino)pyridin-3-yl)carbonyl)piperidine-3-carboxylic acid] | 98
O=C(O)[C@@H]1CCCN(C(=O)c2ccc(NC(CCC(F)(F)F)c3ccc(-c4ccc(Cl)cc4)cc3)cc2)C1 (stereo partly drawn) [Example 27, (3R)-1-(4-((1-(4′-chlorobiphenyl-4-yl)-4,4,4-trifluorobutyl)amino)benzoyl)piperidine-3-carboxylic acid] | 86
Cc1cc(-c2ccc(Cl)cc2)ccc1C(CCC(F)(F)F)Nc1ccc(C(=O)N2CCC[C@@H](C(=O)O)C2)cn1 (stereo partly drawn) [Example 15, (3R)-1-((6-((1-(4′-chloro-3-methylbiphenyl-4-yl)-4,4,4-trifluorobutyl)amino)pyridin-3-yl)carbonyl)piperidine-3-carboxylic acid] | 92
Cc1cc(-c2ncc(Cl)cn2)ccc1C(CCC(F)(F)F)Nc1ccc(C(=O)N2CCC[C@@H](C(=O)O)C2)cc1 (mixture of isomers) [Example 12, (3R)-1-(4-((1-(4-(5-chloropyrimidin-2-yl)-2-methylphenyl)-4,4,4-trifluorobutyl)amino)benzoyl)piperidine-3-carboxylic acid] | 96
O=C(O)[C@@H]1CCCN(C(=O)c2ccc(NC(CCC(F)(F)F)c3ccc(-c4ccccc4)cn3)cc2)C1 (stereo partly drawn) [Example 25, (3R)-1-(4-((4,4,4-trifluoro-1-(5-phenylpyridin-2-yl)butyl)amino)benzoyl)piperidine-3-carboxylic acid] | 71
Cc1cc(-n2ccc(C(C)C)n2)ccc1C(CCC(F)(F)F)Nc1ccc(C(=O)N2CCC[C@@H](C(=O)O)C2)cc1 (stereo partly drawn) [Example 22, (3R)-1-(4-((4,4,4-trifluoro-1-(4-(3-isopropyl-1H-pyrazol-1-yl)-2-methylphenyl)butyl)amino)benzoyl)piperidine-3-carboxylic acid] | 89
